The test system of one assay is Aβ40. As to the kind of experiment: Aβ40 content in culture supernatant of HEK293APP/sw overexpression cells (ELISA, adjusted to total protein). It counts as cell-based. The following applies: for Aβ40 content: secreted by APP/293 (HEK293APP/sw) cells, 400 μM, treated for 24 h, blank control 127.81. Here is the method:
(§1) (1) BCA protein concentration assay kit is purchased from Beyotime, Aβ40 and AB42 test kits are purchased from Wako Company. Except the fetal bovine serum (FBS) is purchased from Shanghai Pulong Biotechnology Research and Development Co. Ltd., the other related reagents are purchased from Gibico Company.
(§2) (2) HEK293APP/sw overexpression cell culture: cells are cultured in 48 microwell plate with DMEM culture solution (including 10% FBS, 100 μg/mL G418 (Geneticin) and penicillin and streptomycin), and a 4 mM stock in DMEM is diluted with DMEM to 400 μM and added to cell culture medium by 500 μL/well at 70% cell density and treated for 24 h.
(§3) (3) After the supernatant of culture solution is added to the BCA reagent at room temperature for 30 minutes, the absorption value of each well is measured at the OD 570 nm by the microplate reader and the total protein concentration is calculated according to the protein standard curve. Meanwhile, the concentration of Aβ40 and Aβ42 in the supernatant of culture solution is measured. Briefly, the supernatant is added to the 96 microwell plate coated by primary antibodies and incubated at 4° C. for overnight. Then the solution in the 96 microwell plate is removed and washed, and HRP (horseradish oxide enzyme) marked antibody is added to the solution and incubated at 4° C. for 2 hours. The antibody is removed and the plate is washed. After TMB substrate is added to each well at room temperature for 30 minutes, and the stop buffer is added to each well. The absorption value of each well is measured at the OD 450 nm by the microplate reader and the concentrations of Aβ40 and Aβ42 are calculated according to the standard curves of Aβ40 and Aβ42 respectively, and the final concentration is obtained by adjusting the concentrations of Aβ40 and Aβ42 according to the total protein concentration.
On the technique in general: ELISA stands for enzyme-linked immunosorbent assay.

The next assay deals with Aβ42. As to the kind of experiment: Aβ42 content in culture supernatant of HEK293APP/sw overexpression cells (ELISA, adjusted to total protein). Type of assay: cell-based. The following applies: for Aβ42 content: secreted by APP/293 (HEK293APP/sw) cells, 400 μM, treated for 24 h, blank control 11.08. Here is the method:
as §1, §2, §3

As for `COc1cccc(C(=O)S/C(CCOP(=O)(O)O)=C(/C)N(C=O)Cc2cnc(C)nc2N)c1` [Example 1, (Z)-S-(2-(N-((4-amino-2-methylpyrimidin-5-yl)methyl)formamido)-5-(phosphonooxy)pent-2-en-3-yl)3-methoxybenzothioate], the Aβ40 content in the assay on Aβ40 worked out at 135.09 pmol/L. This compound also showed an Aβ42 content with Aβ42 of 12.14 pmol/L.

In the assay with Aβ40, `COc1ccc(C(=O)S/C(CCOP(=O)(O)O)=C(/C)N(C=O)Cc2cnc(C)nc2N)cc1` [Example 12, (Z)-S-(2-(N-((4-amino-2-methylpyrimidin-5-yl)methyl)formamido)-5-(phosphonooxy)pent-2-en-3-yl)4-methoxybenzothioate] yielded an Aβ40 content of 41.60 pmol/L. The compound further gave an Aβ42 content in the assay with Aβ42 of 3.92 pmol/L.

In the assay on Aβ40, `C/C(=C(\CCOP(=O)(O)O)SC(=O)c1ccc(Br)cc1)N(C=O)Cc1cnc(C)nc1N` [Example 17, (Z)-S-(2-(N-((4-amino-2-methylpyrimidin-5-yl)methyl)formamido)-5-(phosphonooxy)pent-2-en-3-yl)4-bromobenzothioate] displayed an Aβ40 content of 112.53 pmol/L. The same compound gave an Aβ42 content in the assay with Aβ42 of 8.89 pmol/L.

Consider `C=Cc1ccc(C(=O)S/C(CCOP(=O)(O)O)=C(/C)N(C=O)Cc2cnc(C)nc2N)cc1` [Example 21, (Z)-S-(2-(N-((4-amino-2-methylpyrimidin-5-yl)methyl)formamido)-5-(phosphonooxy)pent-2-en-3-yl)4-vinylbenzothioate], for which the Aβ40 content in the assay with Aβ40 was 127.41 pmol/L. Besides, the Aβ42 content in the assay on Aβ42 is given as 11.24 pmol/L.

`C/C(=C(\CCOP(=O)(O)O)SC(=O)c1ccc(F)cc1)N(C=O)Cc1cnc(C)nc1N` [Example 7, (Z)-S-(2-(N-((4-amino-2-methylpyrimidin-5-yl)methyl)formamido)-5-(phosphonooxy)pent-2-en-3-yl)4-fluorobenzothioate] yielded an Aβ40 content in the assay with Aβ40 of 152.06 pmol/L. For the same compound, the Aβ42 content in the assay on Aβ42 came out at 13.08 pmol/L.

Turning to `C/C(=C(\CCOP(=O)(O)O)SC(=O)c1c(C)cccc1C)N(C=O)Cc1cnc(C)nc1N` [Example 23, (Z)-S-(2-(N-((4-amino-2-methylpyrimidin-5-yl)methyl)formamido)-5-(phosphonooxy)pent-2-en-3-yl)2,6-dimethylbenzothioate], in the assay with Aβ40, the Aβ40 content turned out to be 143.18 pmol/L. The compound also showed an Aβ42 content in the assay on Aβ42 of 12.64 pmol/L.

For the compound `C/C(=C(\CCOP(=O)(O)O)SC(=O)c1cccc(C)c1)N(C=O)Cc1cnc(C)nc1N` [Example 14, (Z)-S-(2-(N-((4-amino-2-methylpyrimidin-5-yl)methyl)formamido)-5-(phosphonooxy)pent-2-en-3-yl)3-methylbenzothioate], the Aβ40 content with Aβ40 stood at 97.97 pmol/L. Also, in the assay on Aβ42, the Aβ42 content was determined as 6.41 pmol/L.

In the assay on Aβ40, `CCOc1ccccc1C(=O)S/C(CCOP(=O)(O)O)=C(/C)N(C=O)Cc1cnc(C)nc1N` [Example 16] showed an Aβ40 content of 42.76 pmol/L. Also, the Aβ42 content with Aβ42 is listed as 5.93 pmol/L.

On to `C/C(=C(\CCOP(=O)(O)O)SC(=O)c1ccccc1)N(C=O)Cc1cnc(C)nc1N` [Comparative Example 2, S-[2-[[(4-amino-2-methyl-5-pyrimidinyl)methyl]formylamino]-1-[2-(phosphonooxy)ethyl]-1-propenyl]ester, reference compound], for which, in the assay with Aβ40 (APP/293 cells, in words), the “effect on the generation of Aβ40 peptides compared with blank control” value is on record as “good effect on reducing the generation”. The compound further gave an Aβ40 content in the assay on Aβ40 of 53.77 pmol/L. Further, in the assay on Aβ42 (APP/293 cells, in words), the “effect on the generation of Aβ42 peptides compared with blank control” value is reported as “good effect on reducing the generation”. Further, in the assay on Aβ42, the Aβ42 content worked out at 5.04 pmol/L.

Take `CCOc1ccc(C(=O)S/C(CCOP(=O)(O)O)=C(/C)N(C=O)Cc2cnc(C)nc2N)cc1` [Example 2, (Z)-S-(2-(N-((4-amino-2-methylpyrimidin-5-yl)methyl)formamido)-5-(phosphonooxy)pent-2-en-3-yl)4-ethoxybenzothioate]: in the assay with Aβ40, the Aβ40 content came out at 93.07 pmol/L. In addition, the Aβ42 content in the assay with Aβ42 came out at 7.19 pmol/L.

In the assay on Aβ40, `C/C(=C(\CCOP(=O)(O)O)SC(=O)c1cccc(Br)c1)N(C=O)Cc1cnc(C)nc1N` [Example 5, (Z)-S-(2-(N-((4-amino-2-methylpyrimidin-5-yl)methyl)formamido)-5-(phosphonooxy)pent-2-en-3-yl)3-bromobenzothioate] came in with an Aβ40 content of 25.65 pmol/L. For the same compound, in the assay with Aβ42, the Aβ42 content is given as 6.77 pmol/L.

In the assay on Aβ40, `C/C(=C(\CCOP(=O)(O)O)SC(=O)c1c(F)cccc1F)N(C=O)Cc1cnc(C)nc1N` [Example 4, (Z)-S-(2-(N-((4-amino-2-methylpyrimidin-5-yl)methyl)formamido)-5-(phosphonooxy)pent-2-en-3-yl)2,6-difluorobenzothioate] came in with an Aβ40 content of 133.25 pmol/L. In the assay with Aβ42, the Aβ42 content is 8.86 pmol/L.

The compound `C/C(=C(\CCOP(=O)(O)O)SC(=O)c1cccc([N+](=O)[O-])c1)N(C=O)Cc1cnc(C)nc1N` [Example 6, (Z)-S-(2-(N-((4-amino-2-methylpyrimidin-5-yl)methyl)formamido)-5-(phosphonooxy)pent-2-en-3-yl)3-nitrobenzothioate] yielded an Aβ40 content in the assay on Aβ40 of 81.05 pmol/L. Moreover, the Aβ42 content in the assay with Aβ42 is listed as 3.31 pmol/L.

Regarding `C/C(=C(\CCOP(=O)(O)O)SC(=O)c1ccccc1F)N(C=O)Cc1cnc(C)nc1N` [Example 9, (Z)-S-(2-(N-((4-amino-2-methylpyrimidin-5-yl)methyl)formamido)-5-(phosphonooxy)pent-2-en-3-yl)2-fluorobenzothioate], the Aβ40 content in the assay on Aβ40 was 15.00 pmol/L.

Turning to `C/C(=C(\CCOP(=O)(O)O)SC(=O)c1ccc(Cl)cc1)N(C=O)Cc1cnc(C)nc1N` [Example 15, (Z)-S-(2-(N-((4-amino-2-methylpyrimidin-5-yl)methyl)formamido)-5-(phosphonooxy)pent-2-en-3-yl)4-chlorobenzothioate], in the assay with Aβ40, the Aβ40 content was found to be 60.27 pmol/L. Moreover, the Aβ42 content in the assay on Aβ42 worked out at 7.16 pmol/L.

With `C=Cc1cccc(C(=O)S/C(CCOP(=O)(O)O)=C(/C)N(C=O)Cc2cnc(C)nc2N)c1` [Example 20, (Z)-S-(2-(N-((4-amino-2-methylpyrimidin-5-yl)methyl)formamido)-5-(phosphonooxy)pent-2-en-3-yl)3-vinylbenzothioate], the Aβ40 content in the assay on Aβ40 stood at 117.16 pmol/L. Moreover, in the assay with Aβ42, the Aβ42 content was 10.33 pmol/L.

In the assay with Aβ40, “(Z)-S-(2-(N-((4-amino-2-methylpyrimidin-5-yl)methyl)formamido)-5-(phosphonooxy)pent-2-en-3-yl)2-iodobenzothioate [Example 19]” showed an Aβ40 content of 62.74 pmol/L. The compound further gave an Aβ42 content with Aβ42 of 5.50 pmol/L.

`C/C(=C(\CCOP(=O)(O)O)SC(=O)c1ccc(O)cc1)N(C=O)Cc1cnc(C)nc1N` [Example 3, (Z)-S-(2-(N-((4-amino-2-methylpyrimidin-5-yl)methyl)formamido)-5-(phosphonooxy)pent-2-en-3-yl)4-hydroxybenzothioate]: the Aβ40 content in the assay on Aβ40 turned out to be 121.48 pmol/L. This compound showed an Aβ42 content in the assay on Aβ42 of 10.79 pmol/L.

Consider `C/C(=C(\CCOP(=O)(O)O)SC(=O)c1ccc([N+](=O)[O-])cc1)N(C=O)Cc1cnc(C)nc1N` [Example 11, (Z)-S-(2-(N-((4-amino-2-methylpyrimidin-5-yl)methyl)formamido)-5-(phosphonooxy)pent-2-en-3-yl)4-nitrobenzothioate], for which the Aβ40 content with Aβ40 is given as 60.98 pmol/L. Besides, the Aβ42 content in the assay with Aβ42 worked out at 5.21 pmol/L.
